#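 Exposure lasted 48 hours, with cells grown in 96-well plates and compounds tested at five concentrations. GI50 = concentration required for 50% inhibition of growth.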 Calls of active or inactive are those of the source. No stated cut-off is given here; in the data, active = GI50 up to about 1.1 µM and inactive = higher.
# Experiments:
# Assay in all cases: NCI tumour cell line growth inhibition, 48 h
# ACHN = test system: ACHN
# CCRF-CEM = test system: CCRF-CEM
# EKVX = test system: EKVX
# HOP-92 = test system: HOP-92
# IGROV-1 = test system: IGROV-1
# KM12 = test system: KM12
# LOX IMVI = test system: LOX IMVI
# Malme-3M = test system: Malme-3M
# NCI-H522 = test system: NCI-H522
# OVCAR-3 = test system: OVCAR-3
# OVCAR-4 = test system: OVCAR-4
# SF-295 = test system: SF-295
# SK-MEL-2 = test system: SK-MEL-2
# U-251 = test system: U-251
# UACC-257 = test system: UACC-257
# UO-31 = test system: UO-31
# SN12C = test system: SN12C
SMILES,GI50 (ACHN),GI50 (CCRF-CEM),GI50 (EKVX),GI50 (HOP-92),GI50 (IGROV-1),GI50 (KM12),GI50 (LOX IMVI),GI50 (Malme-3M),GI50 (NCI-H522),GI50 (OVCAR-3),GI50 (OVCAR-4),GI50 (SF-295),GI50 (SK-MEL-2),GI50 (U-251),GI50 (UACC-257),GI50 (UO-31),GI50 (SN12C)
Cc1ccc([N+](=O)[O-])cc1NC(=O)/C(CC(=O)c1sc(C(N)=S)nc1C)=N\N,96.2 µM (inactive),26.9 µM (inactive),65.3 µM (inactive),62.8 µM (inactive),30.6 µM (inactive),54.1 µM (inactive),> 100 µM (inactive),> 100 µM (inactive),20.9 µM (inactive),26.9 µM (inactive),31.6 µM (inactive),75.7 µM (inactive),> 100 µM (inactive),32.1 µM (inactive),> 100 µM (inactive),48.1 µM (inactive),–
COCCCNC(=O)CC(=O)NCCCOC,> 100 µM (inactive),> 100 µM (inactive),> 100 µM (inactive),> 100 µM (inactive),> 100 µM (inactive),> 100 µM (inactive),–,> 100 µM (inactive),> 100 µM (inactive),> 100 µM (inactive),> 100 µM (inactive),> 100 µM (inactive),> 100 µM (inactive),> 100 µM (inactive),> 100 µM (inactive),> 100 µM (inactive),> 100 µM (inactive)
CCNC(=O)O/N=C1\CCC2[C@@H]3CC=C4C[C@@H](OC5CCCCO5)CC[C@]4(C)C3CC[C@]12C (some centres undefined),1.45 µM (inactive),–,2.51 µM (inactive),2.48 µM (inactive),3.16 µM (inactive),3.94 µM (inactive),1.58 µM (inactive),1.02 µM (active),1.51 µM (inactive),2.59 µM (inactive),1.47 µM (inactive),2.17 µM (inactive),2.2 µM (inactive),1.89 µM (inactive),1.61 µM (inactive),1.44 µM (inactive),2.12 µM (inactive)
CC(=O)c1ccc(NC(=O)C(=O)Nn2c(S)nc3ccccc3c2=O)cc1,> 100 µM (inactive),–,> 100 µM (inactive),> 100 µM (inactive),> 100 µM (inactive),> 100 µM (inactive),> 100 µM (inactive),> 100 µM (inactive),> 100 µM (inactive),> 100 µM (inactive),> 100 µM (inactive),> 100 µM (inactive),> 100 µM (inactive),> 100 µM (inactive),> 100 µM (inactive),> 100 µM (inactive),> 100 µM (inactive)
C=C=C(Sc1ccccc1)C(C)(C)O,> 100 µM (inactive),> 100 µM (inactive),–,> 100 µM (inactive),> 100 µM (inactive),> 100 µM (inactive),> 100 µM (inactive),> 100 µM (inactive),0.399 µM (active),> 100 µM (inactive),> 100 µM (inactive),> 100 µM (inactive),> 100 µM (inactive),> 100 µM (inactive),> 100 µM (inactive),> 100 µM (inactive),> 100 µM (inactive)
O=C(CC1(O)C(=O)Nc2ccccc21)c1ccccc1Cl (centres undefined),> 100 µM (inactive),–,> 100 µM (inactive),> 100 µM (inactive),> 100 µM (inactive),–,> 100 µM (inactive),> 100 µM (inactive),76.6 µM (inactive),> 100 µM (inactive),> 100 µM (inactive),> 100 µM (inactive),> 100 µM (inactive),–,> 100 µM (inactive),64.9 µM (inactive),> 100 µM (inactive)
CCOC(=O)c1[nH]c2cc(OC)c(OC)cc2c1CN(C)C,> 100 µM (inactive),> 100 µM (inactive),> 100 µM (inactive),> 100 µM (inactive),> 100 µM (inactive),> 100 µM (inactive),> 100 µM (inactive),> 100 µM (inactive),–,–,> 100 µM (inactive),> 100 µM (inactive),> 100 µM (inactive),> 100 µM (inactive),> 100 µM (inactive),> 100 µM (inactive),> 100 µM (inactive)
Cc1ccc(C2=Nc3ccccc3[S+]([O-])C(c3ccc4c(c3)OCO4)C2)cc1 (centres undefined),20.3 µM (inactive),26.2 µM (inactive),52 µM (inactive),–,34.8 µM (inactive),18.2 µM (inactive),15.9 µM (inactive),33.8 µM (inactive),18.3 µM (inactive),27.7 µM (inactive),29.3 µM (inactive),40.1 µM (inactive),19 µM (inactive),13 µM (inactive),29.7 µM (inactive),40.8 µM (inactive),17.4 µM (inactive)
C=CCNC(=S)N1CC(C)C(=O)Nc2ccccc21 (centres undefined),> 100 µM (inactive),> 100 µM (inactive),> 100 µM (inactive),–,> 100 µM (inactive),> 100 µM (inactive),> 100 µM (inactive),> 100 µM (inactive),> 100 µM (inactive),> 100 µM (inactive),> 100 µM (inactive),> 100 µM (inactive),> 100 µM (inactive),> 100 µM (inactive),–,> 100 µM (inactive),> 100 µM (inactive)
N#CCc1ccc(C(C#N)/C(CCCC(=O)Nc2cccc([N+](=O)[O-])c2)=N\NC(=O)NN)cc1 (centres undefined),> 100 µM (inactive),> 100 µM (inactive),> 100 µM (inactive),> 100 µM (inactive),> 100 µM (inactive),> 100 µM (inactive),–,> 100 µM (inactive),> 100 µM (inactive),> 100 µM (inactive),> 100 µM (inactive),> 100 µM (inactive),> 100 µM (inactive),> 100 µM (inactive),> 100 µM (inactive),> 100 µM (inactive),> 100 µM (inactive)
O=C(Cc1ccccc1)N/N=C(/c1nc2ccc([N+](=O)[O-])cc2nc1O)C(O)c1ccc(C(O)/C(=N/NC(=O)Cc2ccccc2)c2nc3ccc([N+](=O)[O-])cc3nc2O)cc1 (centres undefined),35.2 µM (inactive),7.26 µM (inactive),> 100 µM (inactive),> 100 µM (inactive),> 100 µM (inactive),–,12.1 µM (inactive),> 100 µM (inactive),3.3 µM (inactive),20.7 µM (inactive),> 100 µM (inactive),44.9 µM (inactive),40 µM (inactive),–,62.4 µM (inactive),–,> 100 µM (inactive)
CN(C)c1n/c(=N/c2ccc3ccccc3c2)ss1,20.6 µM (inactive),7.05 µM (inactive),–,–,19 µM (inactive),15.6 µM (inactive),–,24.4 µM (inactive),7.41 µM (inactive),12.2 µM (inactive),17.5 µM (inactive),–,21.3 µM (inactive),6.22 µM (inactive),16.5 µM (inactive),23.4 µM (inactive),32.9 µM (inactive)
CCCCCC[C@@H]1CCC2C(CO)[C@@H](O)CC[C@@H]2C1 (some centres undefined),19.1 µM (inactive),23.6 µM (inactive),18.2 µM (inactive),–,18.2 µM (inactive),18.7 µM (inactive),19.3 µM (inactive),18.8 µM (inactive),16.3 µM (inactive),15.8 µM (inactive),16.3 µM (inactive),16.2 µM (inactive),26.7 µM (inactive),18.2 µM (inactive),16.7 µM (inactive),20.7 µM (inactive),16.6 µM (inactive)
